# Reference: BindingDB's records for doi:10.1016/s0960-894x(98)00721-5 (Tumor Biology Center, 1999)
# pIC50: −log10 of the molar value.
# Target: Phospholipase A2 (Naja mossambica mossambica)
# Assay: Phospholipase A2 inhibition using mixed micelles pH-stat assay and 14 kDa-Phospholipase A2 from Naja mossambica mossambica
row,pIC50,Compound
1,3.46,COP(=O)(O)OC[C@@H](CCCCCCCO)NC(C)=O [Phosphoric acid (R)-2-acetylamino-9-hydroxy-nonyl ester methyl ester]
2,5.77,CCCCCCCCCCCCCCCCOCCOCCCCCCC[C@H](COP(=O)(O)OC)NC(C)=O [Phosphoric acid (R)-2-acetylamino-9-(2-hexadecyloxy-ethoxy)-nonyl ester methyl ester]
3,5.64,"COP(=O)(O)OC[C@@H](CCCCCCCOC(=O)CCC(=O)OC1CCC2(C)C(=CCC3C2CCC2(C)C(C(C)CCCC(C)C)CCC32)C1)NC(C)=O (stereo partly drawn) [Succinic acid (R)-8-acetylamino-9-(hydroxy-methoxy-phosphoryloxy)-nonyl ester 17-(1,5-dimethyl-hexyl)-10,13-dimethyl-2,3,4,7,8,9,10,11,12,13,14,15,16,17-tetradecahydro-1H-cyclopenta[a]phenanthren-3-yl ester]"
4,5.51,CCCCCCCC(=O)OCCCCCCC[C@H](COP(=O)(O)OC)NC(C)=O [Octanoic acid (R)-8-acetylamino-9-(hydroxy-methoxy-phosphoryloxy)-nonyl ester]
5,5.30,CCCCCCCCCCCCCCCC(=O)OCCCCCCC[C@H](COP(=O)(O)OC)NC(C)=O [Hexadecanoic acid (R)-8-acetylamino-9-(hydroxy-methoxy-phosphoryloxy)-nonyl ester]
6,5.47,CCCCCCCCCCCCCCCC[C@H](COP(=O)(O)OC)NC(C)=O [Phosphoric acid (R)-2-acetylamino-octadecyl ester methyl ester]
